Data as given in ChEMBL document CHEMBL4251748, “Discovery of Cytochrome P450 4F11 Activated Inhibitors of Stearoyl Coenzyme A Desaturase” (J Med Chem, 2018).

These compounds were tested on NCI-H2122 (assay: Cytotoxicity against human NCI-H2122 cells incubated for 4 days). Details: NCI-H2122, 96 h.
Format: functional, cell-based

Structure (SMILES)	EC50 [µM]
COc1ccc(CCNC(=O)NC(=O)c2ccc(OCc3ccccc3)cc2)cc1	0.031
COc1ccc(CCNC(=O)NC(=O)c2ccc(-c3ccccc3)cc2)cc1	0.17
COc1ccc(CCNC(=O)Nc2ccc(Cl)cc2)cc1	> 50
COc1ccc(CCNC(=O)C(=O)Nc2cc(Cl)cc(C(F)(F)F)c2)cc1	> 50
COc1ccc(CCNC(=O)CNc2ccc(Cl)cc2)cc1	> 50
COc1ccc(CCNC(=O)c2nc3ccccc3c(=O)[nH]2)cc1	> 50
COc1ccc(CCNC(=O)c2ccc3ccccc3c2O)cc1	36
COc1ccc(CCNC(=O)C(=O)NCCc2ccc(OC)cc2)cc1	> 50
COc1ccc(CCNC(=O)C(=O)Nc2ccc(C(=O)c3ccccc3)cc2)cc1	0.085
COc1ccc(CCNC(=O)NC(=O)c2ccc(OC)cc2)cc1	1
COc1ccc(CCNC(=O)N(C)C(=O)c2ccc(C(=O)c3ccccc3)cc2)cc1	6.2
COc1ccc(CCNC(=O)c2nc3ccccc3o2)cc1	30
COc1ccccc1CCNC(=O)C(=O)Nc1ccc(Cl)cc1	> 50
COc1ccc(CCNC(=O)C(=O)Nc2ccc(Cl)c(C#N)c2)cc1	0.4
COc1ccc(CCNC(=O)C(=O)Nc2ccccn2)cc1	> 50
COc1ccc(CCNC(=O)C(=O)Nc2ccc(Cl)c(C(F)(F)F)c2)cc1	1.4
COc1ccc(CCCNC(=O)c2ccc(Cl)cc2)cc1	> 50
COc1ccc(CCNC(=O)C(=O)NC2CCC2)cc1	> 50
COc1ccc(CCNC(=O)C(=O)Nc2ccccc2Br)cc1	> 50
CCOc1ccc(CCNC(=O)C(=O)Nc2ccc(Cl)cc2)cc1	> 50
O=C(NCCc1ccc(F)cc1)C(=O)Nc1ccc(Cl)cc1	48
COc1ccc(CCNC(=O)NC(=O)c2ccc(C(N)c3ccccc3)cc2)cc1 (stereo not drawn)	0.32

Structure (SMILES)	EC50 [µM]
COc1ccc(CCNC(=O)C(=O)Nc2ccc(C(=O)c3ccc(OC)cc3)cc2)cc1	0.081
COc1ccc(CCNC(=O)C(=O)Nc2ccc(F)cc2)cc1	0.29
COc1ccc(CCNC(=O)C(=O)Nc2ccncc2)cc1	> 50
COc1ccc(CCNC(=O)C(=O)Nc2ccc(F)c(Cl)c2)cc1	0.74
COc1ccc(CCNC(=O)c2nc3ccccc3[nH]2)cc1	> 50
COc1ccc(CCNC(=O)NC(=O)c2cccc(Br)c2)cc1	> 50
COc1ccc(CCN(C)C(=O)N(C)C(=O)c2ccc(C(=O)c3ccccc3)cc2)cc1	16
COc1ccc(CCNC(=O)C(=O)NC2CCCCCC2)cc1	> 50
COc1ccc(CCNC(=O)C(=O)Nc2cccc(Br)n2)cc1	> 50
COc1ccc(CCNC(=O)C(=O)Nc2ccccc2F)cc1	> 50
COc1ccc(CCNC(=O)C(=O)NC2CCCC2)cc1	> 50
COc1ccc(CCNC(=O)NC(=O)c2ccc(C(=O)O)cc2)cc1	> 50
O=C(NCCc1cccc(O)c1)C(=O)Nc1ccc(Cl)cc1	2.4
COc1ccc(CCNC(=O)C(=O)N2CCc3ccccc3C2)cc1	> 50
COc1ccc(CCNC(=O)c2cnc3ccccc3n2)cc1	> 50
COc1ccc(CCNC(=O)C(=O)NCc2ccc(Cl)cc2)cc1	> 50
COc1ccc(CCNC(=O)C(=O)Nc2cnccn2)cc1	> 50
O=C(NCCc1ccccc1)C(=O)Nc1ccc(Cl)cc1	> 50
COc1ccc(CCNC(=O)C(=O)Nc2ccc(Cl)cc2)cc1OC	> 50
COc1ccc(CCNC(=O)C(=O)O)cc1	> 50
COc1ccc(CCNC(=O)C(=O)Nc2ccc(C)c(F)c2)cc1	0.31
CCOc1cccc(NC(=O)C(=O)NCCc2ccc(OC)cc2)c1	24

Structure (SMILES)	EC50 [µM]
COc1ccc(CCNC(=O)c2ccc(Cl)cc2)cc1	> 50
COc1ccc(CCNC(=O)NC(=O)c2ccc(C(=O)N3CCOCC3)cc2)cc1	> 50
COc1ccc(CCNC(=O)COc2ccc(Cl)cc2)cc1	> 50
COc1ccc(CCNC(=O)C(=O)Nc2ccc(C#N)cc2)cc1	0.71
COC(=O)c1ccc(C(=O)NC(=O)NCCc2ccc(OC)cc2)cc1	> 50
COc1ccc(CCNC(=O)C(=O)Nc2ccc(C(=O)c3ccc(O)cc3)cc2)cc1	> 50
COc1ccc(CCNC(=O)C(=O)Nc2ccc(Cl)c(Cl)c2)cc1	0.49
COc1ccc(CCNC(=O)C(=O)Nc2cc(Cl)cc(Cl)c2)cc1	> 50
COc1cccc(CCNC(=O)C(=O)Nc2ccc(Cl)cc2)c1	> 50
COc1ccc(CCNC(=O)C(=O)Nc2ccc(Br)cn2)cc1	0.29
COc1ccc(CCNC(=O)C(=O)N2CCc3ccccc32)cc1	> 50
COc1ccc(CCNC(=O)NC(=O)c2ccc(C(=O)c3ccccc3C)cc2)cc1	0.32
COc1ccc(CCNC(=O)NC(=O)c2ccc(C(=O)c3ccccc3)cc2)cc1	0.11
COc1ccc(CCNC(=O)NC(=O)c2ccc(C(=O)N3CCCCC3)cc2)cc1	2.3
Cc1ccc(CCNC(=O)C(=O)Nc2ccc(Cl)cc2)cc1	> 50
COc1ccc(CCNC(=O)c2ccc3cccc(O)c3n2)cc1	30
COc1ccc(CCNC(=O)C(=O)Nc2ccccc2)cc1	0.46
COc1ccc(CCNC(=O)C(=O)Nc2ccc(Cl)cn2)cc1	0.35
COc1ccc(CCNC(=O)NC(=O)c2ccc(Br)cc2)cc1	0.16
COc1ccc(CCNC(=O)NC(=O)c2ccc(Oc3ccccc3)cc2)cc1	0.031
COc1ccc(CCNC(=O)C(=O)N2CCCC2)cc1	> 50
O=C(NCCc1ccc(Br)cc1)C(=O)Nc1ccc(Cl)cc1	> 50

Structure (SMILES)	EC50 [µM]
COc1ccc(CCN(C)C(=O)NC(=O)c2ccc(C(=O)c3ccccc3)cc2)cc1	8.7
COc1ccc(CCCCNC(=O)c2ccc(Cl)cc2)cc1	3.27
COc1ccc(CCNC(=O)C(=O)Nc2ccc(Cl)c([N+](=O)[O-])c2)cc1	1.3
COc1ccc(CCNC(=O)C(=O)Nc2cc(F)cc(Cl)c2)cc1	> 50
COc1ccc(CCN(C)C(=O)C(=O)Nc2ccc(Cl)cc2)cc1	10.5
O=C(NCCc1ccccc1O)C(=O)Nc1ccc(Cl)cc1	1.72
O=C(NCCc1ccc(Cl)cc1)C(=O)Nc1ccc(Cl)cc1	> 50
COc1ccc(CCNC(=O)C(=O)Nc2ccc(C)c(Cl)c2)cc1	0.6
COc1ccc(CCNC(=O)C(=O)Nc2cnccc2C)cc1	> 50
COc1ccc(CCNC(=O)C(=O)Nc2cncc(C)c2)cc1	2.6
COc1ccc(CCNC(=O)C(=O)Nc2ccc(Cl)nc2)cc1	0.44
COc1ccc(CCNC(=O)C(=O)Nc2ccc(Cl)c(F)c2)cc1	0.29
COc1ccc(CCNC(=O)C(=O)Nc2cncc(Cl)c2)cc1	5.9
COc1ccc(CCNC(=O)C(=O)Nc2ccc(OC)c(C)c2)cc1	0.81
COc1ccc(CCNC(=O)NC(=O)c2cccc(-c3ccccc3)c2)cc1	> 50
COc1ccc(CCNC(=O)C(=O)Nc2cccc(Cl)c2)cc1	0.38
COc1ccc(CCNC(=O)C(=O)N2CCCCC2)cc1	> 50
COc1ccc(CCNC(=O)C(=O)Nc2ccccc2OC)cc1	> 50
COc1ccc(CCNC(=O)C(=O)N2Cc3ccccc3C2)cc1	> 50
COc1ccc(CCNC(=O)NC(=O)c2ccc(C(O)c3ccccc3)cc2)cc1 (stereo not drawn)	0.097
COc1ccc(CCNC(=O)C(=O)Nc2cccc(F)n2)cc1	> 50
COc1ccc(CCNC(=O)C(=O)NC2CCCCC2)cc1	> 50
